In patent US6727285B1, “Use of D-arginine and/or L-arginine to protect the amino groups of biological substances from damage, inactivation, or modification by toxic carbonyls and/or dicarbonyls” (priority 1995, dated 2004):
Like-named read-outs stand apart in the source and are kept apart here.

How the values were obtained:
bovine serum albumin [1] = biological target: T1, bovine serum albumin (Bos taurus, UniProt P02769); format: biochemical; conditions: for gel formation of albumin samples: pretreated with 1 millimole, 2 ml 30% BSA, 1 millimole methylglyoxal, HEPES buffered, 98.6 F., 217 rpm
T1 construct: HEPES salt, HEPES acid, and bovine serum albumin was obtained from Sigma; purchased Sigma
T1 sequence (P02769 25-607): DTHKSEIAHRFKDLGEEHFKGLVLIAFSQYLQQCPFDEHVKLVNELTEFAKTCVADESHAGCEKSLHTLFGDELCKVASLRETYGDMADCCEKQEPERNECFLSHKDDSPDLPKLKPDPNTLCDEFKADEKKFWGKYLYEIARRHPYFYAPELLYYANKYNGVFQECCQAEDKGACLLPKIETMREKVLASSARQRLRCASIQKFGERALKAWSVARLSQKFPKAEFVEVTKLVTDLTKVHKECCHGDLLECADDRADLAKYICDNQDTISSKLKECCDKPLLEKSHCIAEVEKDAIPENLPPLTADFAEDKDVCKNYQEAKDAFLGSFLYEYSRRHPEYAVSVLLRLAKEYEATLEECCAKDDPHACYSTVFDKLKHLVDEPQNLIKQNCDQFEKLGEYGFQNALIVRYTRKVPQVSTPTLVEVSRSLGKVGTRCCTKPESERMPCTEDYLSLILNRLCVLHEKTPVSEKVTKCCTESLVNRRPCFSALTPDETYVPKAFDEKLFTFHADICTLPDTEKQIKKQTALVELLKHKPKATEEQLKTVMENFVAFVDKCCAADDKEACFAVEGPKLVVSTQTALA
Method: The magnetic stirrer was set to 217 rpm. The pH was checked at five minutes.
The pH was constantly monitored as were the color and fluid characteristics of the mixture. […] The end-point was recorded when a visible non-flowing gel formed in the tube and could not be caused to flow when the tube was inverted at 40 degrees below the horizontal for two minutes.

bovine serum albumin [2] = assay: Protectant pretreatment against methylglyoxal cross-linking of HEPES-buffered bovine serum albumin (Example 2, Table 5); format: biochemical; conditions: 2 ml 30% BSA, 1 millimole protectant, 1 millimole methylglyoxal
Method: As described in TABLE #5, 2 cc of 30% bovine serum albumin was added by glass pipette to each of 6 glass 7 ml. test tubes numbered 1 through 6. 1 millimole of L-arginine hydrochloride in 0.5 ml. of 6 molar HEPES buffer was added to tube #1. 1 millimole of L-arginine hydrochloride in 0.4 ml. of 6 molar HEPES buffer was added to tube #2. 1 millimole D-arginine hydrochloride in 0.5 ml. of 6 molar HEPES buffer was added to tube #3. 1 millimole D-arginine hydrochloride in 0.4 ml. of 6 molar HEPES buffer was added to tube #4. 0.5 ml. of 6 molar HEPES buffer was added to tube #5. 1 millimole of glycocyamine in 0.5 ml. of 6 molar HEPES buffer was added to tube #6.
The pH was measured periodically and observations were made and recorded. At three hours the heating unit was reduced to room temperature, 75 degrees Fahrenheit, to prevent drying and the reaction allowed to proceed.

bovine serum albumin [3] = assay: Protectant pretreatment against methylglyoxal gel formation of bovine serum albumin, pH adjusted by titration NaOH/HCL (Example 3, Table 6); format: biochemical
Method: As described in TABLE #6,2 ml. bovine serum albumin 30% solution was added to each of eight 7 ml. glass test tubes. One millimole of guanidine was added to tube #1; no protectant was added to tubes #2, #3, and #4. […] Into test tube #6 was added 1 millimole of L-arginine hydrochloride, the pH was adjusted to 7.40 by micro-drop titration. Into test tube #7 was added 1 millimole of L-arginine hydrochloride, not pH adjusted. Into test tube #8 was added 1 millimole of D-arginine hydrochloride, not pH adjusted. […] After 3 hours the heating unit was turned off reducing the temperature to room temperature, 75 degrees Fahrenheit, to prevent the drying out of the sample and the reaction was allowed to proceed overnight.

bovine serum albumin [4] = assay: Blocking of methylglyoxal or glyoxal cross-linking (gel formation) of albumin, inventor's tests; format: biochemical; conditions: for gelatin formation of bovine serum albumin when methylglyoxal is added: acidic solution, room temperature, 2 cc BSA pretreated with one millimole; for gelatin formation of bovine serum albumin when methylglyoxal is added / conversion of bovine serum albumin from liquid to gelatin by methylglyoxal: one millimole methylglyoxal; for blocking of the cross-linking of albumin by methylglyoxal or glyoxal: arginines: hydrochloride salts and free base forms; for conversion of bovine serum albumin from liquid to gelatin by methylglyoxal: pH 6.4 to 7.4, room temperature, 75, 80, 83, 90 and 98.6 degrees Fahrenheit, 2 cc 30% BSA pretreated with one millimole; for methylglyoxal-induced gel formation of liquid bovine serum albumin: pretreatment, free base or hydrochloride form
[5] = test system: New Zealand White rabbits made diabetic by streptozotocin; conditions: arginine HCL oral 30 mg/kg/day or i.v. 10 mg/kg/day, radiolabeled methylglyoxal i.v. daily
Method: (§1) Group 2: The rabbits of group 2 are fed a diet supplemented with oral D-arginine HCL 30 mg/kg/day (or an appropriate dose which can range from, for example, but not limited to, 1 mg/kg/day to 100 mg/kg/day).
(§2) Group 3: The rabbits of group 3 are fed a diet supplemented with oral L-arginine HCL 30 mg/kg/day (or an appropriate dose which can range from, for example, but not limited to, 1 mg/kg/day to 100 mg/kg/day).
(§3) Group 4: The rabbits of group 4 receive L-arginine HCL by ear vein in 10 cc normal saline at a dose of 10 mg/kg/day (or an appropriate dose which can range from, for example, but not limited to, 1 mg/kg/day to 100 mg/kg/day) for the duration of the experiment.
(§4) Group 5: The rabbits of group 5 receive D-arginine HCL by ear vein in 10 cc normal saline at a dose of 10 mg/kg/day (or an appropriate dose which can range from, for example, but not limited to, 1 mg/kg/day to 100 mg/kg/day) for the duration of the experiment.
(§5) At the end of the experiment, all animals are sacrificed and their kidneys removed, sectioned and examined for gross and microscopic changes, as well as for accumulation of the radiolabel, with special attention to the glomerular basement membrane.

ovalbumin = biological target: T2, ovalbumin (Gallus gallus, UniProt P01012); assay: Reaction of methylglyoxal with ovalbumin (egg albumin); format: biochemical
T2 sequence (P01012 1-386): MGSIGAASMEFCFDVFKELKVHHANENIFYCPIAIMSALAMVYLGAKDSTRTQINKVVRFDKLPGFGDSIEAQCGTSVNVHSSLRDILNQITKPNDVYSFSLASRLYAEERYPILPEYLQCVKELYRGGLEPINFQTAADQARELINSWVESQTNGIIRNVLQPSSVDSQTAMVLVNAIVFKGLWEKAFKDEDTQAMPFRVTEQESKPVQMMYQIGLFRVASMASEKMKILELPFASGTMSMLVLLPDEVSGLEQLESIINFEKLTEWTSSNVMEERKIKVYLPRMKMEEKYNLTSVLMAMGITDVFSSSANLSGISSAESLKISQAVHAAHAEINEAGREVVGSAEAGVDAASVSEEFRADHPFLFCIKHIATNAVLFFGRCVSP

[6] = test system: New Zealand White rabbits made diabetic by streptozotocin; assay: Streptozotocin-diabetic rabbits given i.v. radiolabeled glucose, kidney examination (Example 6); conditions: arginine HCL oral 30 mg/kg/day or i.v. 10 mg/kg/day, radiolabeled glucose i.v. daily
Method: as §1, §2, §3, §4, §5

[7] = test system: insulin dependent diabetic; assay: L-arginine hydrochloride in a diabetic patient with painful feet (Example 9); format: in vivo, human; conditions: 700 mg twice a day (1,400 mg per day), 120kg, painful feet secondary to vasculopathy and/or neuropathy, within 6 weeks
[8] = test system: non-diabetic animal model; assay: Non-diabetic rabbits challenged with radiolabeled methylglyoxal (Example 7); conditions: otherwise identical to Example 5
[9] = test system: New Zealand White rabbits; conditions: arginine HCL oral 30 mg/kg/day or i.v. 10 mg/kg/day, methylglyoxal i.v. daily
Method: as §1, §2, §3, §4

bovine serum albumin [10] = biological target: T1, bovine serum albumin; format: biochemical
Method: As described in TABLE #4, 2 cc of 30% bovine serum albumin (BSA) was added by glass pipette (Kimax 1/100) to each of three glass 7 ml. test tubes numbered 1, 2, and 3. 0.4 ml. of 6 molar HEPES buffer was added to tube #1 by glass pipette. 0.5 ml. of 6 molar HEPES buffer was added to test tube #2. 0.3 ml. of 6 molar HEPES buffer was added to tube #3.

[11] = 2 ml BSA + 1 millimole protectant not pH adjusted, 0.18 ml of 40% pH-adjusted methylglyoxal
[12] = 2 ml BSA + 1 millimole protectant, pH adjusted to 7.40-7.46 with NaOH/HCL, 0.18 ml of 40% pH-adjusted methylglyoxal

Cl.N=C(N)NCCC[C@@H](N)C(=O)O [D-arginine Hydrochloride, D-arginine hydrochloride]
gel formation of albumin samples (bovine serum albumin [1]): did not gel at any time and remained liquid
FINAL FORM (bovine serum albumin [2]; 6 m HEPES 0.4 ml): LIQUID
FINAL FORM (bovine serum albumin [2]; 6 m HEPES 0.5 cc/ml): LIQUID
FINAL FORM (bovine serum albumin [3]; [11]): LIQUID
Observation overnight (bovine serum albumin [3]; [11]): later; remained liquid overnight;
FINAL FORM (bovine serum albumin [3]; [12]): LIQUID
Observation at 1 hr. 5 min. (bovine serum albumin [3]; [12]): brownish, yellow liquid,
Observation overnight (bovine serum albumin [3]; [12]): Remained liquid

N=C(N)NCCC[C@@H](N)C(=O)O [D-arginine]
binding of methylglyoxal to bovine serum albumin (bovine serum albumin [4]): capable of blocking the binding
gelatin formation of bovine serum albumin when methylglyoxal is added (bovine serum albumin [4]): prevent gelatin formation
blocking of the cross-linking of albumin by methylglyoxal or glyoxal (bovine serum albumin [4]): worked consistently
conversion of bovine serum albumin from liquid to gelatin by methylglyoxal (bovine serum albumin [4]): the albumin remains liquid
methylglyoxal-induced gel formation of liquid bovine serum albumin (bovine serum albumin [4]): block methylglyoxal-induced gel formation
accumulation of radiolabeled methylglyoxal in the kidneys compared with the control [5]: reduced or absent
gross and microscopic changes in the kidney compared to the control [5]: reduced or absent
binding of methylglyoxal to egg albumin (ovalbumin): capable of blocking the binding
accumulation of radiolabeled glucose metabolites in the kidneys compared with the control [6]: reduced or absent
gross and microscopic changes in the kidney compared to the control [6]: reduced or absent

Cl.N=C(N)NCCC[C@H](N)C(=O)O [L-arginine Hydrochloride, L-arginine hydrochloride]
gel formation of albumin samples (bovine serum albumin [1]): did not gel at any time and remained liquid
pain in both the feet and hands [7]: marked reduction in pain
FINAL FORM (bovine serum albumin [2]; 6 m HEPES 0.4 ml): LIQUID
FINAL FORM (bovine serum albumin [2]; 6 m HEPES 0.5 cc/ml): LIQUID
Observation overnight (bovine serum albumin [3]; [11]): became viscous overnight;
FINAL FORM (bovine serum albumin [3]; [12]): LIQUID
Observation overnight (bovine serum albumin [3]; [12]): later; remained liquid overnight;

N=C(N)NCCC[C@H](N)C(=O)O [L-arginine]
binding of methylglyoxal to bovine serum albumin (bovine serum albumin [4]): capable of blocking the binding
gelatin formation of bovine serum albumin when methylglyoxal is added (bovine serum albumin [4]): prevent gelatin formation
blocking of the cross-linking of albumin by methylglyoxal or glyoxal (bovine serum albumin [4]): worked consistently
conversion of bovine serum albumin from liquid to gelatin by methylglyoxal (bovine serum albumin [4]): the albumin remains liquid
methylglyoxal-induced gel formation of liquid bovine serum albumin (bovine serum albumin [4]): block methylglyoxal-induced gel formation
accumulation of radiolabeled methylglyoxal in the kidneys compared with the control [5]: reduced or absent
gross and microscopic changes in the kidney compared to the control [5]: reduced or absent
binding of methylglyoxal to egg albumin (ovalbumin): capable of blocking the binding
accumulation of radiolabeled glucose metabolites in the kidneys compared with the control [6]: reduced or absent
gross and microscopic changes in the kidney compared to the control [6]: reduced or absent

N=C(N)NN [aminoguanidine, reference compound]
blocking of the cross-linking of albumin by methylglyoxal or glyoxal (bovine serum albumin [4]): do not block

N=C(N)NCCC[C@H](N)C(=O)O [arginine, 2-amino-5-guanidovaleric acid]
changes caused by methylglyoxal [8]: blocks
level of methylglyoxal in the blood [9]: reduces

NC(=O)NCCC[C@H](N)C(=O)O [citrulline, reference compound]
blocking of the cross-linking of albumin by methylglyoxal or glyoxal (bovine serum albumin [4]): do not block

NCCS [cystieamine, reference compound]
blocking of the cross-linking of albumin by methylglyoxal or glyoxal (bovine serum albumin [4]): do not block

N[C@@H](CSSC[C@H](N)C(=O)O)C(=O)O [cystine, reference compound]
blocking of the cross-linking of albumin by methylglyoxal or glyoxal (bovine serum albumin [4]): do not block

N/N=C(\N)NN [diaminoguanidine, reference compound]
blocking of the cross-linking of albumin by methylglyoxal or glyoxal (bovine serum albumin [4]): do not block

N=C(N)NCC(=O)O [glycocyamine, reference compound]
blocking of the cross-linking of albumin by methylglyoxal or glyoxal (bovine serum albumin [4]): do not block

N=C(N)N [guanidine, reference compound]
blocking of the cross-linking of albumin by methylglyoxal or glyoxal (bovine serum albumin [4]): do not block
FINAL FORM (bovine serum albumin [3]; 2 ml BSA, 1 millimole protectant added to BSA, 1 millimole (0.18 ml of 40%) methylglyoxal pH adjusted to 7.40): GEL

CC(=O)C=O [methylglyoxal]
product formed with bovine serum albumin (bovine serum albumin [1]; pH 6.4 to 7.4, buffered and unbuffered systems): solid gelatin
conversion of liquid ovalbumin (ovalbumin; 0.2 cc of 40% methylglyoxal, two cc of liquid ovalbumin, within a matter of hours, 1976 unpublished works): from liquid to solid gelatin
FINAL FORM (bovine serum albumin [10]; pH 7.35): GEL
time after mixing until firm yellow gelatin formed (bovine serum albumin [10]; sample 1: 2 ml 30% BSA + 0.4 cc 6 m HEPES (pH 7.40), 1 millimole methylglyoxal (0.18 ml of 40%, pH not adjusted), no protectant, 98.6° F.): <5 minutes after mixing
time until sudden gelatin formation (bovine serum albumin [10]; sample 3: 2 ml 30% BSA + 0.3 cc 6 m HEPES (pH 7.35), 0.20 ml of 40% methylglyoxal buffered to 7.36, counted from the 5-minute pH reading ('33 minutes later')): pH 7.07 at 5 minutes; 33

NC(N)=O [urea, reference compound]
blocking of the cross-linking of albumin by methylglyoxal or glyoxal (bovine serum albumin [4]): do not block
